Converted amounts (≈) assume the structure as drawn.
Legend:
E. coli 25922 = experiment: Antibacterial activity, microbroth dilution MIC (Table 1); format: cell-based, Escherichia coli; conditions: Escherichia coli; microbroth dilution; control Gram-negative E. coli 25922 strain; read-out: MIC, 25922
Procedure, shortened: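 Values are MICs (μg/mL): the smallest drug amount at which macroscopically visible bacterial growth is absent under assay conditions, from a microdilution method in broth.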

E. coli LZ3111 = experiment: Antibacterial activity, MIC, quinolone resistant strain (Table 2); format: cell-based; conditions: Escherichia coli, LZ3111, read-out: MIC LZ3111
Procedure, shortened: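 MIC values (μg/mL) came from a microbroth dilution assay, scored as the lowest drug concentration at which no growth was visible by eye.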

K. pneumoniae MXX1232 = experiment: Antibacterial activity, MIC, resistant strain (Table 4); format: cell-based; conditions: Klebsiella pneumoniae, MXX1232; resistant K. pneumoniae MMX1232, multi-drug resistant clinical isolate; read-out: MIC, MMX1232
Source text: (§1) The antibacterial activity from a microbroth dilution method may be presented as the minimum inhibitory concentration (MIC in μg/mL). The MIC value is the lowest concentration of drug which prevents macroscopically visible growth under test conditions.
(§2) Antibacterial activity of test compounds against the Gram-negative Acinetobacter baumannii (A. baumannii) BAA747 and Klebsiella pneumoniae (K. pneumoniae) 35657 bacterium and the resistant A. baumannii MXX2240 and K. pneumoniae MXX1232 strains are shown in Table 4. The MMX strains are multi-drug resistant clinical isolates.

A. baumannii MXX2240 = experiment: as above; format: cell-based; conditions: Acinetobacter baumannii, MXX2240; resistant A. baumannii MMX2240, multi-drug resistant clinical isolate; read-out: MIC, MMX2240
Source text: as §1, §2

[1] = system: Staphylococcus aureus (S. aureus) 29213; experiment: Antibacterial activity, microbroth dilution MIC (Table 1); format: cell-based; conditions: microbroth dilution, Gram-positive S. aureus 29213, read-out: MIC, 29213
Procedure, shortened: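 Using broth microdilution, MIC endpoints (μg/mL) mark where visible growth no longer appears; the panel spans sensitive and control Gram-negative strains plus a Gram-positive strain.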

[2] = system: Escherichia coli (E. coli) BAS849; experiment: as above; format: cell-based; conditions: microbroth dilution, super sensitive Gram-negative E. coli BAS849, read-out: MIC, BAS849
Procedure, shortened: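 Growth inhibition by microbroth dilution. MIC = lowest μg/mL with no visible growth. Strain 25922 is the control Gram-negative; BAS849 is hypersensitive.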

[3] = system: Pseudomonas aeruginosa (P. aeruginosa) 27853; experiment: Antibacterial activity, MIC (Table 5); format: cell-based; conditions: P. aeruginosa 27853, read-out: MIC, 27853
Procedure, shortened: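 Values are MICs in μg/mL, read as the lowest concentration at which no growth is visible by eye. They were determined by a microbroth dilution method.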

[4] = system: Klebsiella pneumoniae (K. pneumoniae) 35657; experiment: Antibacterial activity, MIC (Table 4); format: cell-based; conditions: K. pneumoniae 35657, read-out: MIC, 35657
Procedure, shortened: (§3)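 MIC (μg/mL) by microbroth dilution, taken as the lowest drug concentration preventing macroscopically visible growth. MXX strains are multi-drug resistant clinical isolates.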

[5] = system: Acinetobacter baumannii (A. baumannii) BAA747; experiment: Antibacterial activity, MIC (Table 4); format: cell-based; conditions: A. baumannii BAA747, read-out: MIC, BAA747
Procedure, shortened: as §3

Structure (SMILES) | MIC (E. coli 25922) | MIC (E. coli LZ3111) | MIC (K. pneumoniae MXX1232) | MIC (A. baumannii MXX2240) | MIC [1] | MIC [2] | MIC [3] | MIC [4] | MIC [5]
CCc1c(-c2ccc3[nH]ccc3c2)[nH]c(=O)c(C(=O)O)c1O [Cpd 425, 5-ethyl-4-hydroxy-6-(1H-indol-5-yl)-2-oxo-1,2-dihydropyridine-3-carboxylic acid] | 1 to 3.5 µg/mL (≈ 3.35 to 11.7 µM) | 1 to 3.5 µg/mL (≈ 3.35 to 11.7 µM) | 12.5 to 150 µg/mL (≈ 41.9 to 503 µM) | < 1 µg/mL | 3.5 to 12.5 µg/mL (≈ 11.7 to 41.9 µM) | < 1 µg/mL | 12.5 to 150 µg/mL (≈ 41.9 to 503 µM) | 1 to 3.5 µg/mL (≈ 3.35 to 11.7 µM) | 3.5 to 12.5 µg/mL (≈ 11.7 to 41.9 µM)
Cc1c(-c2ccc3cn(C)nc3c2)[nH]c(=O)c(C(=O)O)c1O [Cpd 397, 4-hydroxy-5-methyl-6-(2-methyl-2H-indazol-6-yl)-2-oxo-1,2-dihydropyridine-3-carboxylic acid] | 12.5 to 150 µg/mL (≈ 41.8 to 501 µM) | 1 to 3.5 µg/mL (≈ 3.34 to 11.7 µM) | 12.5 to 150 µg/mL (≈ 41.8 to 501 µM) | 3.5 to 12.5 µg/mL (≈ 11.7 to 41.8 µM) | 12.5 to 150 µg/mL (≈ 41.8 to 501 µM) | 12.5 to 150 µg/mL (≈ 41.8 to 501 µM) | 12.5 to 150 µg/mL (≈ 41.8 to 501 µM) | 12.5 to 150 µg/mL (≈ 41.8 to 501 µM) | 12.5 to 150 µg/mL (≈ 41.8 to 501 µM)
CCc1c(-c2cc3cc(F)ccc3n2C)[nH]c(=O)c(C(=O)O)c1O [Cpd 406, 5-ethyl-6-(5-fluoro-1-methyl-1H-indol-2-yl)-4-hydroxy-2-oxo-1,2-dihydropyridine-3-carboxylic acid] | 12.5 to 150 µg/mL (≈ 37.8 to 454 µM) | 12.5 to 150 µg/mL (≈ 37.8 to 454 µM) | 12.5 to 150 µg/mL (≈ 37.8 to 454 µM) | 12.5 to 150 µg/mL (≈ 37.8 to 454 µM) | 3.5 to 12.5 µg/mL (≈ 10.6 to 37.8 µM) | 1 to 3.5 µg/mL (≈ 3.03 to 10.6 µM) | 12.5 to 150 µg/mL (≈ 37.8 to 454 µM) | 12.5 to 150 µg/mL (≈ 37.8 to 454 µM) | 12.5 to 150 µg/mL (≈ 37.8 to 454 µM)
CCc1ccc2c(c1)cc(-c1[nH]c(=O)c(C(=O)O)c(O)c1CC)n2C [Cpd 407, 5-ethyl-6-(5-ethyl-1-methyl-1H-indol-2-yl)-4-hydroxy-2-oxo-1,2-dihydropyridine-3-carboxylic acid] | 12.5 to 150 µg/mL (≈ 36.7 to 441 µM) | 12.5 to 150 µg/mL (≈ 36.7 to 441 µM) | 12.5 to 150 µg/mL (≈ 36.7 to 441 µM) | 12.5 to 150 µg/mL (≈ 36.7 to 441 µM) | 1 to 3.5 µg/mL (≈ 2.94 to 10.3 µM) | 1 to 3.5 µg/mL (≈ 2.94 to 10.3 µM) | 12.5 to 150 µg/mL (≈ 36.7 to 441 µM) | 12.5 to 150 µg/mL (≈ 36.7 to 441 µM) | 12.5 to 150 µg/mL (≈ 36.7 to 441 µM)
CCc1c(-c2cc3cc(F)c(C)cc3n2C)[nH]c(=O)c(C(=O)O)c1O [Cpd 411, 5-ethyl-6-(5-fluoro-1,6-dimethyl-1H-indol-2-yl)-4-hydroxy-2-oxo-1,2-dihydropyridine-3-carboxylic acid] | 12.5 to 150 µg/mL (≈ 36.3 to 436 µM) | 12.5 to 150 µg/mL (≈ 36.3 to 436 µM) | 12.5 to 150 µg/mL (≈ 36.3 to 436 µM) | 12.5 to 150 µg/mL (≈ 36.3 to 436 µM) | 3.5 to 12.5 µg/mL (≈ 10.2 to 36.3 µM) | 1 to 3.5 µg/mL (≈ 2.9 to 10.2 µM) | 12.5 to 150 µg/mL (≈ 36.3 to 436 µM) | 12.5 to 150 µg/mL (≈ 36.3 to 436 µM) | 12.5 to 150 µg/mL (≈ 36.3 to 436 µM)
CCc1c(-c2ccc3cn(C)nc3c2)[nH]c(=O)c(C(=O)O)c1O [Cpd 389, 5-ethyl-4-hydroxy-6-(2-methyl-2H-indazol-6-yl)-2-oxo-1,2-dihydropyridine-3-carboxylic acid] | 12.5 to 150 µg/mL (≈ 39.9 to 479 µM) | 3.5 to 12.5 µg/mL (≈ 11.2 to 39.9 µM) | 12.5 to 150 µg/mL (≈ 39.9 to 479 µM) | 3.5 to 12.5 µg/mL (≈ 11.2 to 39.9 µM) | 12.5 to 150 µg/mL (≈ 39.9 to 479 µM) | 3.5 to 12.5 µg/mL (≈ 11.2 to 39.9 µM) | 12.5 to 150 µg/mL (≈ 39.9 to 479 µM) | 12.5 to 150 µg/mL (≈ 39.9 to 479 µM) | 12.5 to 150 µg/mL (≈ 39.9 to 479 µM)
CCc1ccc2cc(-c3[nH]c(=O)c(C(=O)O)c(O)c3CC)n(C)c2c1 [Cpd 408, 5-ethyl-6-(6-ethyl-1-methyl-1H-indol-2-yl)-4-hydroxy-2-oxo-1,2-dihydropyridine-3-carboxylic acid] | 12.5 to 150 µg/mL (≈ 36.7 to 441 µM) | 12.5 to 150 µg/mL (≈ 36.7 to 441 µM) | 12.5 to 150 µg/mL (≈ 36.7 to 441 µM) | 12.5 to 150 µg/mL (≈ 36.7 to 441 µM) | 1 to 3.5 µg/mL (≈ 2.94 to 10.3 µM) | 1 to 3.5 µg/mL (≈ 2.94 to 10.3 µM) | 12.5 to 150 µg/mL (≈ 36.7 to 441 µM) | 12.5 to 150 µg/mL (≈ 36.7 to 441 µM) | 12.5 to 150 µg/mL (≈ 36.7 to 441 µM)
CCc1c(-c2ccc3c(ccn3-c3ccc(F)cc3)c2)[nH]c(=O)c(C(=O)O)c1O [Cpd 438, 5-ethyl-6-(1-(4-fluorophenyl)-1H-indol-5-yl)-4-hydroxy-2-oxo-1,2-dihydropyridine-3-carboxylic acid] | 12.5 to 150 µg/mL (≈ 31.9 to 382 µM) | 12.5 to 150 µg/mL (≈ 31.9 to 382 µM) | 12.5 to 150 µg/mL (≈ 31.9 to 382 µM) | 12.5 to 150 µg/mL (≈ 31.9 to 382 µM) | < 1 µg/mL | < 1 µg/mL | 12.5 to 150 µg/mL (≈ 31.9 to 382 µM) | 12.5 to 150 µg/mL (≈ 31.9 to 382 µM) | 12.5 to 150 µg/mL (≈ 31.9 to 382 µM)
CCc1c(-c2ccc3c(ccn3-c3ccc(C(F)(F)F)cc3)c2)[nH]c(=O)c(C(=O)O)c1O [Cpd 437, 5-ethyl-4-hydroxy-2-oxo-6-(1-(4-(trifluoromethyl)phenyl)-1H-indol-5-yl)-1,2-dihydropyridine-3-carboxylic acid] | 12.5 to 150 µg/mL (≈ 28.3 to 339 µM) | 12.5 to 150 µg/mL (≈ 28.3 to 339 µM) | 12.5 to 150 µg/mL (≈ 28.3 to 339 µM) | 12.5 to 150 µg/mL (≈ 28.3 to 339 µM) | 3.5 to 12.5 µg/mL (≈ 7.91 to 28.3 µM) | < 1 µg/mL | 12.5 to 150 µg/mL (≈ 28.3 to 339 µM) | 12.5 to 150 µg/mL (≈ 28.3 to 339 µM) | 12.5 to 150 µg/mL (≈ 28.3 to 339 µM)

Source: patent publication US9409905B2, “Antibacterial compounds and methods for use” (PTC THERAPEUTICS, INC., priority 2011, dated 2016)
